# Assays:
# Assay type in all cases: cell-based, human
# amylase = experiment: Protein expression analysis of amylase by immunocytological fluorescent staining; details: salivary gland cells repeatedly subcultured in Rock inhibitor-containing medium; FIG. 3
# Procedure: (i) Salivary gland cells cultured on glass slides were fixed by being treated for 10 minutes with 4% paraformaldehyde (WaKo). (ii) The fixed cells were washed three times with Tris-buffered saline (TBS: Sigma-Aldrich). (iii) The fixed cells were permeated with 0.5% Triton X-100 (WaKo) for 15 minutes. (iv) The fixed cells were reacted for 30 minutes with TBS containing 1% bovine serum albumin (Sigma-Aldrich). (v) The fixed cells were washed three times with TBS. (vi) A primary antibody (anti-goat amylase (Santa Cruz)) was mixed with TBS and reacted at a concentration of 1:200 at 4° C. for 16 hours. (vii) The cells were washed three times with TBS. (viii) Anti-goat Alexa Floor 647 (Millipore) was mixed with phosphate-buffered physiological saline and reacted at a concentration of 1:200 at room temperature for 1 hour. (ix) The cells were washed three times with TBS. (x) The cells were mounted with DAPI-containing mounting medium (DaKo). (xi) The cells were observed under a confocal microscope (FV10i-LIV: OLYMPUS).
# salivary gland cells = experiment: Karyotype analysis (Q band technique) of primary cultured salivary gland cells; details: primary cultured labial gland cells cultured in inhibitor-containing medium; FIG. 5
# Procedure: Primary cultured salivary gland cells were cultured in a medium containing a Rock inhibitor and analyzed for the presence or absence of their genetic defect(s) by karyotype analysis. The karyotype analysis test was conducted by Q band technique.
# [1] = test system: proliferating cell nuclear antigen (PCNA); experiment: Western blotting of PCNA (proliferation) in salivary gland cells; details: salivary gland cells in Rock inhibitor-containing medium; relative to α-tubulin; FIG. 6A
# Procedure: (§1) Primary cultured salivary gland cells were cultured in a medium containing a Rock inhibitor and analyzed for their proliferation by Western blotting of proliferating cell nuclear antigen (PCNA: Santa Cruz) and for their apoptosis by Western blotting of caspase-3 (CST). For analysis of their immortalization, the expression of telomerase reverse transcriptase (TERT) was analyzed by quantitative RT-PCR assay.
# (§2) The protein levels of PCNA and caspase-3 were measured by Western blotting. In addition, α-tubulin was used as an endogenous control.
# (§3) (i) A protein extract was electrophoresed on a 4% to 12% polyacrylamide gel (Invitrogen).
# (§4) (ii) The proteins were transferred onto a nitrocellulose membrane (Invitrogen).
# (§5) (iii) The membrane was washed with Tris-buffered saline containing 0.1% Tween-20 (WaKo) (TBST), and then blocked with Blocking One (Nacalai Tesque, Inc., Japan) for 30 minutes. […]
# (§6) (vi) The membrane was reacted at room temperature for 1 hour with horseradish peroxidase (HRP)-conjugated secondary antibody (Promega) and then treated with Super Signal West Pico Chemiluminescent substrate (Thermo) to develop signals for visualization purposes. The intensity of signals was quantified with a CS analyzer (ATTO) and expressed as a relative value in comparison with the protein level of α-tubulin measured as a control.
# caspase-3 = experiment: Western blotting of caspase-3 (apoptosis) in salivary gland cells; details: salivary gland cells in Rock inhibitor-containing medium; relative to α-tubulin; FIG. 6A
# Procedure: as §1, §2, §3, §4, §5, §6
# odontoma cells = experiment: Cell culture of odontoma cells using a Rho kinase inhibitor (cell morphology); details: inhibitor-containing medium (10 μM); passage 5 with inhibitor vs passage 0 without; FIG. 11
# Procedure: (§7) Odontoma cells, oral mucosal epithelial cells, fibroblasts, and cancer-associated fibroblasts (CAFs) (i) Patient-derived cells for use as a source material were taken in a required amount as described above. (ii) The cells were washed three times with phosphate-buffered physiological saline (PBS) (supplemented with 10 units/ml of penicillin and 100 μg/ml of streptomycin: Sigma-Aldrich). (iii) The cells were cut into small pieces with sterilized iris scissors and a surgical knife (No. 11). (iv) After addition of trypsin (TrypLE Select Enzyme, Gibco, Code No. A12177-01), the cells were shaken at 37° C. for 30 minutes. (v) The cells were mixed with Dulbecco's modified Eagle medium (DMEM: Sigma-Aldrich) (supplemented with 10% fetal bovine serum: Nichirei Bioscience Inc., Japan, 10 units/ml of penicillin and 100 μg/ml of streptomycin), and centrifugation (at 1000 rpm for 5 minutes) was repeated three times. (vi) The cells were mixed with DMEM (supplemented with 10% fetal bovine serum, 10 units/ml of penicillin, 100 μg/ml of streptomycin, 10 μM of the Rock kinase inhibitor and 0.3 μM of L-ascorbic acid 2-phosphate: Sigma-Aldrich) (DMEM+) and then seeded into collagen type I-coated cell culture dishes (IWAKI). (vii) The cells were washed with PBS once every three days to replace the above medium. (viii) The cultured cells were subcultured at 80% confluency. […]
# [2] = test system: oral mucosal epithelial cells; experiment: Cell culture of oral mucosal epithelial cells using a Rho kinase inhibitor (cell morphology); details: inhibitor-containing medium (10 μM); passage 5 with inhibitor vs passage 0 without; FIG. 12
# Procedure: as §7
# [3] = test system: vascular endothelial cells; experiment: Cell culture of vascular endothelial cells using a Rho kinase inhibitor (cell morphology); details: inhibitor-containing medium (10 μM, EGM-2MV); passage 8 with inhibitor vs passage 0 without; FIG. 15
# Procedure: Vascular Endothelial Cells (i) Patient-derived cells for use as a source material were taken in a required amount as described above. (ii) The cells were washed three times with phosphate-buffered physiological saline (PBS) (supplemented with 10 units/ml of penicillin and 100 μg/ml of streptomycin: Sigma-Aldrich). (iii) The cells were cut into small pieces with sterilized iris scissors and a surgical knife (No. 11). (iv) The cells were added to collagenase (032-10534: Wako) and shaken at 37° C. for 60 minutes. (v) The cells were diluted with an equal volume of fetal bovine serum (Nichirei Bioscience Inc., Japan) and centrifuged (at 1000 rpm for 10 minutes), and then centrifuged (at 1000 rpm for 5 minutes) three times with PBS, followed by addition of MACS buffer and centrifugation (at 1000 rpm for 5 minutes). (vi) Magnetic beads (Dynabeads CD31 Endotherial cell, 11155D: Invitrogen) were used to separate the cells. (vii) The cells were mixed with EGM-2MV (Lonza) (supplemented with 20% fetal bovine serum, 10 units/ml of penicillin, 100 μg/ml of streptomycin, and 10 μM of the Rock kinase inhibitor) and then seeded into fibronectin-coated cell culture dishes (IWAKI). (viii) The cells were washed with PBS once every three days to replace the above medium. (ix) The cultured cells were subcultured at 80% confluency. […]
smiles,measurement,setting,value
"CC(N)[C@H]1CC[C@H](C(=O)Nc2ccncc2)CC1 (stereo partly drawn) [Rock inhibitor, (R)-(+)-trans-N-(4-pyridyl)-4-(1-aminoethyl)-cyclohexanecarboxamide]",protein expression of amylase,amylase,significantly high
same,chromosomal/genetic defect(s) in karyotype analysis,salivary gland cells,No genetic defect was observed
same,PCNA expression,[1],no difference was observed
same,caspase-3 expression,caspase-3,no difference was observed
same,cell morphology of odontoma cells on repeated subculture,odontoma cells,maintain their cell morphology even when repeatedly subcultured
same,cell morphology of oral mucosal epithelial cells on repeated subculture,[2],maintain their cell morphology even when repeatedly subcultured
same,cell morphology of vascular endothelial cells on repeated subculture,[3],maintain their cell morphology even when repeatedly subcultured
